In the test the target is human transferrin receptor (hTfR) (Homo sapiens, UniProt P02786). Put plainly: SPR measurement under pH 6.0 conditions (Biacore T200, NTA chip, immobilized hTfR). The following applies: read-out: hTfR SPR pH6.0 KD. The format is binding. The method, then:
Molecular interactions between the synthesized peptides and the transferrin receptor (hTfR) were evaluated by surface plasmon resonance (SPR) using the following method. The specific assay procedure is described below.
An NTA sensor chip (Cytiva) was inserted in a Biacore T200 (Cytiva), a priming operation was performed 3 times with a running buffer: HBS-P+ pH 6.0 (Cytiva), and an equilibrium state was created at a flow rate of 30 µL/min. A ligand immobilization operation was carried out at a flow rate of 10 µL/min.
The surface of the NTA sensor chip was washed with 350 mM EDTA solution, nickel ions were loaded into the carbomethyldextran chains of the sensor chip with a 500 µM aqueous nickel chloride solution, and then washing was performed with 3 mM EDTA solution. After mixing 50 µL of each of 60 mM EDC solution (Cytiva) and 650 mM NHS solution (Cytiva), the mixture was reacted for 420 seconds at a flow rate of 10 µL/min. 150 µL of 0.2 µM hTfR solution was prepared by diluting with 10 mM acetic acid solution (pH 5.0), and reacted for 420 seconds at a flow rate of 10 µL/min to immobilize hTfR on the NTA sensor chip. For the human transferrin receptor (hTfR), the recombinant hTfR described in Example 2 of WO2018/124121 was used. After immobilization, capping was performed by reacting with 1.0 M ethanolamine aqueous solution (Cytiva) at a flow rate of 10 µL/min for 420 seconds. Peptide lysate prepared in DMSO to 10 mM was diluted with the running buffer to a final concentration of 10 µM peptide lysate, and then peptide solutions of 250 nM, 125 nM, 62.5 nM, 25 nM, and 12.5 nM were prepared. The kinetics of the peptide against hTfR was obtained by SPR measurement using the above samples.
The kinetic evaluation model was single-cycle kinetics, and curve fitting was performed using Biacore T200 Evaluation Software Version 3.0 (Cytiva). The binding of the peptide to hTfR was evaluated by performing curve fitting on the obtained sensorgram by the least squares method and obtaining the kon value, the koff value, and the KD value.
On the technique in general: Surface plasmon resonance follows binding to a sensor surface in real time, without labels.

Setting [1] is: SPR, pH 6.0, peptide with the linker named in the table.

pKd: −log10 of the molar value. Where two headings read alike, the source gives them in different places. Bridge positions count the residues as written; N and C are the ends. Square brackets hold non-standard residues; d marks the D form. Peptide text beside a SMILES is read from it. NMePhe(3-Cl) = CN[C@@H](Cc1cccc(Cl)c1)C(=O)O; NMeW = CN[C@@H](Cc1c[nH]c2ccccc12)C(=O)O; NMeY = CN[C@@H](Cc1ccc(O)cc1)C(=O)O; Nva(3-Et) = CCC(CC)[C@H](N)C(=O)O; PEG4 = NCCOCCOCCOCCOCCC(=O)O

Sequence of human transferrin receptor (hTfR) (P02786 whole entry): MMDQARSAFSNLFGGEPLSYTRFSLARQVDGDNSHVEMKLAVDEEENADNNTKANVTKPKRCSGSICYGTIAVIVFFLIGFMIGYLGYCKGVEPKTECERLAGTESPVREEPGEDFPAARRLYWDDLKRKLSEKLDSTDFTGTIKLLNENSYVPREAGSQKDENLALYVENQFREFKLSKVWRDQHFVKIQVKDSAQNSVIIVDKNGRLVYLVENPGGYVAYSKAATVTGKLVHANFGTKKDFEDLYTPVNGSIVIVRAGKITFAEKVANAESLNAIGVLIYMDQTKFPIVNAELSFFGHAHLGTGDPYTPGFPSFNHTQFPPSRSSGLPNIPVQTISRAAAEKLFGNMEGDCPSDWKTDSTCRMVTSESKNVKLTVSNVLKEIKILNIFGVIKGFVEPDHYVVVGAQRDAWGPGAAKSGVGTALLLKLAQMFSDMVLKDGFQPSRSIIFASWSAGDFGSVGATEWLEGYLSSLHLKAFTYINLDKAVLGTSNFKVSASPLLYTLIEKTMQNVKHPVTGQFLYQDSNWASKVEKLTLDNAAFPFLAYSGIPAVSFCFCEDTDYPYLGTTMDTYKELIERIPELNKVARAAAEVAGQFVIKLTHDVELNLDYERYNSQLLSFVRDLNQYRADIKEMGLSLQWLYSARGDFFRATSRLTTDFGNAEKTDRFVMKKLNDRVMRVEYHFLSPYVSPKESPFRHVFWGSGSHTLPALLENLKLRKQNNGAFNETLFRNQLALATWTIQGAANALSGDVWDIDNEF

For orientation: pKd means −log10 of the Kd, conventionally taken in molar units. Consider `CCC(CC)[C@@H]1NC(=O)[C@H](Cc2ccc(O)cc2)NC(=O)[C@H](Cc2ccc(O)cc2)NC(=O)[C@H](CC(N)=O)NC(=O)[C@H](Cc2c[nH]c3ccccc23)N(C)C(=O)[C@H](C(C)C)NC(=O)[C@H](Cc2cccc(Cl)c2)N(C)C(=O)[C@H](C(C)C)NC(=O)[C@H](C)NC(=O)CSC[C@@H](C(=O)NCCOCCOCCOCCOCCC(N)=O)NC(=O)[C@H](Cc2ccc(O)cc2)N(C)C(=O)[C@H](Cc2ccc(O)cc2)NC(=O)[C@H](CCCNC(=N)N)NC(=O)[C@H](CCCCN)NC(=O)[C@H](CO)NC1=O` [compound 132] ({CH2CO}-AV[NMePhe(3-Cl)]V[NMeW]NYY[Nva(3-Et)]SKRY[NMeY]C[PEG4]-NH2; thioether N-15), for which the pKd under setting [1] is 7.88. As for `CCC(CC)[C@@H]1NC(=O)[C@H](Cc2ccc(NCC(=O)O)nc2)NC(=O)[C@H](Cc2ccc(O)cc2)NC(=O)[C@H](CC(N)=O)NC(=O)[C@H](Cc2cn(CC(=O)O)c3ccccc23)NC(=O)[C@H](C(C)C)NC(=O)[C@H](Cc2cccc(Cl)c2)N(C)C(=O)[C@H](C(C)C)NC(=O)[C@H](C)NC(=O)CSC[C@@H](C(=O)NCCOCCOCCOCCOCCC(N)=O)NC(=O)[C@H](Cc2ccc(O)cc2)N(C)C(=O)[C@H](Cc2cccc(C(=O)O)c2)NC(=O)[C@H](CCCNC(=N)N)NC(=O)[C@H](CCC(N)=O)NC(=O)[C@H]([C@@H](C)CC)NC1=O` [compound 151], the negative logarithm of the Kd (pKd) (SPR, pH 6.0, Table 2-1-2) is 7.32. On to `CC[C@H](C)[C@@H]1NC(=O)[C@H](Cc2ccc(OC)cc2)NC(=O)[C@H](Cc2ccc(O)cc2)NC(=O)[C@H](CC(N)=O)NC(=O)[C@H](Cc2c[nH]c3ccccc23)N(C)C(=O)[C@H](C(C)C)NC(=O)[C@H](Cc2cccc(Cl)c2)N(C)C(=O)[C@H](C(C)C)NC(=O)[C@H](C)NC(=O)CSC[C@@H](C(=O)NCCOCCOCCOCCOCCC(N)=O)NC(=O)[C@H](Cc2ccc(O)cc2)N(C)C(=O)[C@H](Cc2ccccc2)NC(=O)[C@H](CCCNC(=N)N)NC(=O)[C@H](CCC(=O)NCCCN)NC(=O)[C@H]([C@@H](C)CC)NC1=O` [compound 171], for which the negative-log Kd (pKd) (pH 6.0, single-cycle kinetics) is 9.17. In the case of `CC[C@H](C)[C@@H]1NC(=O)[C@H](Cc2ccc(O)cc2)NC(=O)[C@H](Cc2ccc(O)cc2)NC(=O)[C@H](CC(N)=O)NC(=O)[C@H](Cc2c[nH]c3ccccc23)N(C)C(=O)[C@H](C(C)C)NC(=O)[C@H](Cc2cccnc2)N(C)C(=O)[C@H](C(C)C)NC(=O)[C@H](C)NC(=O)CSC[C@@H](C(=O)NCCOCCOCCOCCOCCC(N)=O)NC(=O)[C@H](Cc2ccc(O)cc2)N(C)C(=O)[C@H](Cc2ccc(O)cc2)NC(=O)[C@H](CCCNC(=N)N)NC(=O)[C@H](CCCCN)NC(=O)[C@H]([C@@H](C)CC)NC1=O` [compound 135], under setting [1], the negative logarithm of the Kd (pKd) was 7.82. Turning to `CC[C@H](C)[C@@H]1NC(=O)[C@H](Cc2ccc(O)cc2)NC(=O)[C@H](Cc2ccc(N)nc2)NC(=O)[C@H](CC(N)=O)NC(=O)[C@H](Cc2c[nH]c3ccccc23)N(C)C(=O)[C@H](C(C)C)NC(=O)[C@H](Cc2ccccc2)N(C)C(=O)[C@H](C(C)C)NC(=O)[C@H](C)NC(=O)CSC[C@@H](C(=O)NCC(=O)N[C@H](CCC(=O)O)C(=O)N[C@H](CCC(=O)O)C(=O)N[C@H](CCC(=O)O)C(=O)N[C@H](CO)C(=O)N[C@H](CO)C(=O)N[C@@H](CCCCN=[N+]=[N-])C(N)=O)NC(=O)[C@H](Cc2ccc(C(=O)O)cc2)N(C)C(=O)[C@H](Cc2ccc(O)cc2)NC(=O)[C@H](CCCNC(=N)N)NC(=O)[C@H](CCCCN)NC(=O)[C@H]([C@@H](C)CC)NC1=O` [compound 186], the pKd (SPR, pH 6.0, Table 1-3-2-2) was 6.84.

These data come from patent EP4667483A1, “HUMAN TRANSFERRIN RECEPTOR-BINDING PEPTIDE” (JCR Pharmaceuticals Co., Ltd., priority 2023, dated 2024).
